PubChem BioAssay AID330 (DTP/NCI, 2004)
Several values for one entry are separate records, joined by “and”; a condition that tells them apart may be missing. Equal entries are not always repeated. Toxic doses and inconclusive results are not listed. Peptide text beside a SMILES is read from it.

Test system: P388 leukemia ip, CD2F1 mice, survival T/C
Assay: NCI In Vivo Anticancer Drug Screen. Data for tumor model P388 Leukemia (intraperitoneal) in CD2F1 (CDF1) mice
Conditions: endpoint: median survival time, higher = longer survival
Procedure, shortened: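 Mice carrying the transplanted tumor received test compound or vehicle. Survival was recorded in each group, and the value is the treated-group measurement divided by that of the vehicle-treated control group.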

[1] = dose: 25.0 mg/kg/injection, schedule: Q01DX005 (ip), vehicle: Klucel (hydroxypropylcellulose) (HPC)
[2] = dose: 50.0 mg/kg/injection, schedule: Q01DX005 (ip), vehicle: Klucel (hydroxypropylcellulose) (HPC)
[3] = dose: 100.0 mg/kg/injection, schedule: Q01DX005 (ip), vehicle: Klucel (hydroxypropylcellulose) (HPC)
[4] = dose: 200.0 mg/kg/injection, schedule: Q01DX005 (ip), vehicle: Klucel (hydroxypropylcellulose) (HPC)
[5] = dose: 50.0 mg/kg/injection, schedule: Q01DX005 (ip), vehicle: saline with Tween-80
[6] = dose: 100.0 mg/kg/injection, schedule: Q01DX005 (ip), vehicle: saline with Tween-80
[7] = dose: 200.0 mg/kg/injection, schedule: Q01DX005 (ip), vehicle: saline with Tween-80
[8] = dose: 50.0 mg/kg/injection, schedule: Q01DX009 (ip), vehicle: saline with Tween-80
[9] = dose: 100.0 mg/kg/injection, schedule: Q01DX009 (ip), vehicle: saline with Tween-80
[10] = dose: 200.0 mg/kg/injection, schedule: Q01DX009 (ip), vehicle: saline with Tween-80
[11] = dose: 50.0 mg/kg/injection, schedule: Q01DX009 (ip), vehicle: saline
[12] = dose: 100.0 mg/kg/injection, schedule: Q01DX009 (ip), vehicle: saline
[13] = dose: 200.0 mg/kg/injection, schedule: Q01DX009 (ip), vehicle: saline
[14] = dose: 60.0 mg/kg/injection, schedule: Q01DX005 (ip), vehicle: saline with Tween-80
[15] = dose: 120.0 mg/kg/injection, schedule: Q01DX005 (ip), vehicle: saline with Tween-80
[16] = dose: 240.0 mg/kg/injection, schedule: Q01DX005 (ip), vehicle: saline with Tween-80
[17] = dose: 12.5 mg/kg/injection, schedule: Q01DX005 (ip), vehicle: Klucel (hydroxypropylcellulose) (HPC)
[18] = dose: 50.0 mg/kg/injection, schedule: Q01DX009 (ip), vehicle: Klucel (hydroxypropylcellulose) (HPC)
[19] = dose: 100.0 mg/kg/injection, schedule: Q01DX009 (ip), vehicle: Klucel (hydroxypropylcellulose) (HPC)
[20] = dose: 200.0 mg/kg/injection, schedule: Q01DX009 (ip), vehicle: Klucel (hydroxypropylcellulose) (HPC)

CCCCCNC(=O)CCC(NC(=O)c1ccc(N(C)Cc2cnc3nc(N)nc(N)c3n2)cc1)C(=O)O (centres undefined)
T/C (dose: 200.0 mg/kg/injection, schedule: Q01DX009 (ip), vehicle: sodium bicarbonate): 155 % of control
T/C (dose: 400.0 mg/kg/injection, schedule: Q01DX009 (ip), vehicle: sodium bicarbonate): 91 % of control

CSc1nc(N)c(I)c(Cl)n1
T/C (dose: 50.0 mg/kg/injection, schedule: Q04DX003 (ip), vehicle: saline with Tween-80): 100 % of control
T/C (dose: 100.0 mg/kg/injection, schedule: Q01DX001 (ip), vehicle: saline): 110 % of control
T/C (dose: 100.0 mg/kg/injection, schedule: Q04DX003 (ip), vehicle: saline with Tween-80): 102 % of control
T/C (dose: 200.0 mg/kg/injection, schedule: Q01DX001 (ip), vehicle: saline): 113 % of control
T/C (dose: 200.0 mg/kg/injection, schedule: Q04DX003 (ip), vehicle: saline with Tween-80): 93 % of control
T/C (dose: 400.0 mg/kg/injection, schedule: Q01DX001 (ip), vehicle: saline): 110 % of control

Cn1c([N+](=O)[O-])cnc1CSc1ccc(C#N)cc1
T/C [1]: 105 % of control
T/C [2]: 104 % of control
T/C [3]: 92 % of control
T/C [4]: 114 % of control

CN(CCNCC1CCCN1C)Cc1cccc(Cl)c1 (centres undefined)
T/C (dose: 50.0 mg/kg/injection, schedule: Q01DX005 (ip), vehicle: saline): 108 % of control
T/C (dose: 100.0 mg/kg/injection, schedule: Q01DX005 (ip), vehicle: saline): 101 % of control
T/C (dose: 200.0 mg/kg/injection, schedule: Q01DX005 (ip), vehicle: saline): 106 % of control

NC(Cc1cnc[nH]1)C(=O)NC(Cc1ccc(O)cc1)C(=O)O (stereo not drawn) (H-His-Tyr-OH; configuration not given here)
T/C (dose: 60.0 mg/kg/injection, schedule: Q01DX005 (ip), vehicle: saline): 100 % of control
T/C (dose: 120.0 mg/kg/injection, schedule: Q01DX005 (ip), vehicle: saline): 101 % of control
T/C (dose: 240.0 mg/kg/injection, schedule: Q01DX005 (ip), vehicle: saline): 100 % of control

CC(=N\O)/C(C)=N/O.CC(=N\O)/C(C)=N/O.[Cl][Rh][Cl]
T/C (dose: 200.0 mg/kg/injection, schedule: Q04DX003 (ip), vehicle: saline): 100 % of control
T/C (dose: 400.0 mg/kg/injection, schedule: Q04DX003 (ip), vehicle: saline): 95 % of control

COc1cccc(OC)c1OCc1ccc(OCc2ccccc2)cc1
T/C [5]: 100 % of control
T/C [6]: 95 % of control
T/C [7]: 105 % of control

CC(O)C(NC(=O)OC(C)(C)C)C(=O)ON1C(=O)CCC1=O (centres undefined)
T/C [8]: 101 % of control
T/C [9]: 101 % of control
T/C [10]: 101 % of control

O=c1cccc(Cl)[nH]1
T/C [9]: 100 % of control
T/C [10]: 95 % of control
T/C (dose: 400.0 mg/kg/injection, schedule: Q01DX009 (ip), vehicle: saline with Tween-80): 100 % of control

O=C1C(=Cc2ccc(Cl)cc2)C(=O)N(c2ccccc2)C(=S)N1c1ccccc1
T/C (dose: 100.0 mg/kg/injection, schedule: Q04DX002 (ip), vehicle: Klucel (hydroxypropylcellulose) (HPC)): 101 % of control
T/C (dose: 200.0 mg/kg/injection, schedule: Q04DX002 (ip), vehicle: Klucel (hydroxypropylcellulose) (HPC)): 93 % of control
T/C (dose: 400.0 mg/kg/injection, schedule: Q04DX002 (ip), vehicle: Klucel (hydroxypropylcellulose) (HPC)): 89 % of control

O=C(O)c1c[nH]c2cc(OCc3ccc(Cl)c(Cl)c3)ccc2c1=O
T/C (dose: 12.5 mg/kg/injection, schedule: Q01DX009 (ip), vehicle: saline with Tween-80): 95 % of control
T/C (dose: 25.0 mg/kg/injection, schedule: Q01DX009 (ip), vehicle: saline with Tween-80): 91 % of control
T/C [8]: 94 % of control
T/C [11]: 92 % of control

COc1ccc(/C(C#N)=C/c2cc(OC)c(OC)c(OC)c2)cc1
T/C [2]: 105 % of control
T/C [3]: 97 % of control
T/C [4]: 101 % of control

CC(=O)Nc1nc(C)c(S(=O)(=O)Cl)s1
T/C [11]: 102 % of control
T/C [12]: 98 % of control
T/C [13]: 102 % of control
T/C (dose: 400.0 mg/kg/injection, schedule: Q01DX009 (ip), vehicle: saline): 94 % of control

CCC(CC)(C(=O)Nc1ccc2c(c1)c(=O)c1ccccc1n2C)C(=O)Nc1ccc2c(c1)c(=O)c1ccccc1n2C
T/C [5]: 100 % of control
T/C [6]: 101 % of control
T/C [7]: 105 % of control

NC(=O)c1csc(-c2ccc(CO)o2)n1
T/C [5]: 95 % of control
T/C [6]: 86 % of control

CCN(CC)CC(=O)Nc1ccc2c(c1)C(=O)c1cc(NC(=O)CN(CC)CC)ccc1-2
T/C [8]: 86 % of control
T/C [9]: 94 % of control
T/C [10]: 96 % of control

CCOC(=O)c1noc(Oc2ccc(Cl)cc2Cl)n1
T/C [14]: 93 % of control
T/C [15]: 97 % of control
T/C [16]: 90 % of control

NNC(=O)C1C2c3ccccc3C(c3ccccc32)C1C(=O)NN (centres undefined)
T/C [14]: 99 % of control
T/C [15]: 99 % of control
T/C [16]: 96 % of control

Nc1ncc2[nH]c(N)nc2n1
T/C [17]: 106 % of control
T/C [1]: 97 % of control
T/C [2]: 104 % of control and 107 % of control

O=S(=O)(O)C(F)(F)F
T/C (dose: 25.0 mg/kg/injection, schedule: Q01DX005 (ip), vehicle: water): 101 % of control
T/C (dose: 50.0 mg/kg/injection, schedule: Q01DX005 (ip), vehicle: water): 100 % of control
T/C (dose: 200.0 mg/kg/injection, schedule: Q01DX005 (ip), vehicle: water): 100 % of control

CC(=O)O.CC(=O)O.[Co+2].[NH-]C(CCC(N)=O)C(=O)O.[NH-]C(CCC(N)=O)C(=O)O (centres undefined)
T/C [8]: 98 % of control

CC1CN1P(=O)(N1CC1C)N1CC1C (centres undefined)
T/C (dose: 3.13 mg/kg/injection, schedule: Q04DX003 (ip), vehicle: saline): 104 % of control
T/C (dose: 6.25 mg/kg/injection, schedule: Q04DX003 (ip), vehicle: saline): 109 % of control
T/C (dose: 12.5 mg/kg/injection, schedule: Q04DX003 (ip), vehicle: saline): 109 % of control
T/C (dose: 50.0 mg/kg/injection, schedule: Q04DX003 (ip), vehicle: saline): 222 % of control
T/C (dose: 100.0 mg/kg/injection, schedule: Q04DX003 (ip), vehicle: saline): 86 % of control

CC(C)CC(NC(=O)C(N)Cc1c[nH]c2ccccc12)C(=O)O (centres undefined)
T/C [11]: 96 % of control
T/C [12]: 95 % of control
T/C [13]: 118 % of control

N#Cc1c(Cl)c(Cc2ccccc2)c(Cl)n2c1nc1ccccc12
T/C [14]: 100 % of control
T/C [15]: 108 % of control
T/C [16]: 99 % of control

COC(=O)N/N=C(/CC1(O)C(=O)Nc2ccccc21)c1ccc(Cl)cc1Cl (centres undefined)
T/C [5]: 99 % of control
T/C [6]: 93 % of control
T/C [7]: 92 % of control

CC(=O)[O][Bi]([c]1ccccc1)[c]1ccccc1
T/C (dose: 3.12 mg/kg/injection, schedule: Q01DX005 (ip), vehicle: Klucel (hydroxypropylcellulose) (HPC)): 106 % of control and 108 % of control
T/C (dose: 6.25 mg/kg/injection, schedule: Q01DX005 (ip), vehicle: Klucel (hydroxypropylcellulose) (HPC)): 108 % of control and 110 % of control
T/C [17]: 103 % of control and 120 % of control
T/C [1]: 118 % of control
T/C [2]: 90 % of control

CN=C(N)N/N=C(\c1ccccc1)c1ccc(F)cc1
T/C (dose: 12.5 mg/kg/injection, schedule: Q04DX002 (ip), vehicle: saline with Tween-80): 99 % of control
T/C (dose: 25.0 mg/kg/injection, schedule: Q04DX002 (ip), vehicle: saline with Tween-80): 100 % of control and 111 % of control

Cc1ccc(N=Cc2ccc(C=Nc3ccc(C)cc3C)cc2)c(C)c1
T/C [18]: 92 % of control
T/C [19]: 91 % of control
T/C [20]: 97 % of control

O=c1[nH]c(=O)n(-c2cccc3ccccc23)c(=O)n1-c1cccc2ccccc12
T/C [18]: 100 % of control
T/C [19]: 108 % of control
T/C [20]: 105 % of control

CC(=O)c1c(O)ccc2nc3ccccc3nc12
T/C (dose: 50.0 mg/kg/injection, schedule: Q01DX009 (ip), vehicle: suspension in saline): 105 % of control
T/C (dose: 100.0 mg/kg/injection, schedule: Q01DX009 (ip), vehicle: suspension in saline): 111 % of control
T/C (dose: 200.0 mg/kg/injection, schedule: Q01DX009 (ip), vehicle: suspension in saline): 93 % of control
